{
  "source": "patent US6166290A",
  "about": "“Glutathione-S-conjugate transport in plants” (The Trustees of the University of Pennsylvania, priority 1997, dated 2000)",
  "molecules": {"B1": {"name": "AtMRP1 (Arabidopsis thaliana) (protein)", "chain": "MGFEPLDWYCKPVPNGVWTKTVDYAFGAYTPCAIDSFVLGISHLVLLILCLYRLWLITKDHKVDKFCLRSKWFSYFLALLAAYATAEPLFRLVMRISVLDLDGAGFPPYEAFMLVLEAFAWGSALVMTVVETKTYIHELRWYVRFAVIYALVGDMVLLNLVLSVKEYYGSFKLYLYISEVAVQVAFGTLLFVYFPNLDPYPGYTPVGTENSEDYEYEELPGGENICPERHANLFDSIFFSWLNPLMTLGSKRPLTEKDVWHLDTWDKTETLMRSFQKSWDKELEKPKPWLLRALNNSLGGRFWWGGFWKIGNDCSQFVGPLLLNELLKSMQLNEPAWIGYIYAISIFVGVVLGVLCEAQYFQNVMRVGYRLRSALIAAVFRKSLRLTNEGRKKFQTGKITNLMTTDAESLQQICQSLHTMWSAPFRIIVALVLLYQQLGVASIIGALFLVLMFPIQTVIISKTQKLTKEGLQRTDKRIGLMNEVLAAMDTVKCYAWENSFQSKVQTVRDDELSWFRKAQLLSAFNMFILNSIPVLVTVVSFGVFSLLGGDLTPARAFTSLSLFSVLRFPLFMLPNIITQMVNANVSLNRLEEVLSTEERVLLPNPPIEPGQPAISIRNGYFSWDSKADRPTLSNINLDIPLGSLVAVVGSTGEGKTSLISAMLGELPARSDATVTLRGSVAYVPQVSWIFNATVRDNILFGAPFDQEKYERVIDVTALQHDLELLPGGDLTEIGERGVNISGGQKQRVSMARAVYSNSDVCILDDPLSALDAHVGQQVFEKCIKRELGQTTRVLVTNQLHFLSQVDKILLVHEGTVKEEGTYEELCHSGPLFQRLMENAGKVEDYSEENGEAEVDQTSVKPVENGNANNLQKDGIETKNSKEGNSVLVKREERETGVVSWKVLERYQNALGGAWVVMMLVICYVLTQVFRVSSSTWLSEWTDSGTPKTHGPLFYNIVYALLSFGQVSVTLINSYWLIMSSLYAAKKMHDAMLGSILRAPMVFFQTNPLGRIINRFAKDMGDIDRTVAVFVNMFMGSIAQLLSTVILIGIVSTLSLWAIMPLLVVFYGAYLYYQNTSREIKRMDSTTRSPVYAQFGEALNGLSSIRAYKAYDRMAEINGRSMDNNIRFTLVNMAANRWLGIRLEVLGGLMVWLTASLAVMQNGKAANQQAYASTMGLLLSYALSITSSLTAVLRLASLAENSLNSVERVGNYIEIPSEAPLVIENNRPPPGWPSSGSIKFEDVVLRYRPELPPVLHGVSFLISPMDKVGIVGRTGAGKSSLLNALFRIVELEKGRILIDECDIGRFGLMDLRKVLGIIPQAPVLFSGTVRFNLDPFSEHNDADLWESLERAHLKDTIRRNPLGLDAEVTEAGENFSVGQRQLLSLARALLRRSKILVLDEATAAVDVRTDVLIQKTIREEFKSCTMLIIAHRLNTIIDCDKVLVLDSGKVQEFSSPENLLSNGESSFSKMVQSTGTANAEYLRSITLENKRTREANGDDSQPLEGQRKWQASSRWAAAAQFALAVSLTSSHNDLQSLEIEDDNSILKKTKDAVVTLRSVLEGKHDKEIEDSLNQSDISRERWWPSLYKMVEGLAVMSRLARNRMQHPDYNLEGKSFDWDNVEM", "notes": "S. cerevisiae DTY168 (ycf1 null) vacuolar-enriched membrane vesicles"}, "B2": {"name": "AtMRP2 (Arabidopsis thaliana) (protein)", "chain": "MGFEFIEWYCKPVPNGVWTKQVANAFGAYTPCATDSFVLGISQLVLLVLCLYRIWLALKDHKVERFCLRSRLYNYFLALLAAYATAEPLFRLIMGISVLDFDGPGLPPFEAFGLGVKAFAWGAVMVMILMETKIYIRELRWYVRFAVIYALVGDMVLLNLVLSVKEYYSSYVLYLYTSEVGAQVLFGILLFMHLPNLDTYPGYMPVRSETVDDYEYEEISDGQQICPEKHANIFDKIFFSWMNPLMTLGSKRPLTEKDVWYLDTWDQTETLFTSFQHSWDKELQKPQPWLLRALNNSLGGRFWWGGFWKIGNDCSQFVGPLLLNQLLKSMQEDAPAWMGYIYAFSIFVGVVFGVLCEAQYFQNVMRVGYRLRSALIAAVFRKSLRLTNEGRRKFQTGKITNLMTTDAESLQQICQSLHTMWSAPFRIIIALILLYQQLGVASLIGALLLVLMFPLQTVIISKMQKLTKEGLQRTDKRIGLMNEVLAAMDTVKCYAWENSFQSKVQTVRDDELSWFRKSQLLGALNMFILNSIPVLVTIVSFGVFTLLGGDLTPARAFTSLSLFAVLRFPLFMLPNIITQVVNANVSLKRLEEVLATEERILLPNPPIEPGEPAISIRNGYFSWDSKGDRPTLSNINLDVPLGSLVAVVGSTGEGKTSLISAILGELPATSDAIVTLRGSVAYVPQVSWIFNATVRDNILFGSPFDREKYERAIDVTSLKHDLELLPGGDLTEIGERGVNISGGQKQRVSMARAVYSNSDVYIFDDPLSALDAHVGQQVFEKCIKRELGQKTRVLVTNQLHFLSQVDRIVLVHEGTVKEEGTYEELSSNGPLFQRLMENAGKVEEYSEENGEAEADQTAEQPVANGNTNGLQMDGSDDKKSKEGNKKGGKSVLIKQEERETGVVSWRVLKRYQDALGGAWVVMMLLLCYVLTEVFRVTSSTWLSEWTDAGTPKSHGPLFYNLIYALLSFGQVLVTLTNSYWLIMSSLYAAKKLHDNMLHSILRAPMSFFHTNPLGRIINRFAKDLGDIDRTVAVFVNMFMGQVSQLLSTVVLIGIVSTLSLWAIMPLLVLFYGAYLYYQNTAREVKRMDSISRSPVYAQFGEALNGLSTIRAYKAYDRMADINGRSMDNNIRFTLVNMGANRWLGIRLETLGGLMIWLTASFAVMQNGRAENQQAFASTMGLLLSYALNITSLLTGVLRLASLAENSLNAVERVGNYIEIPPEAPPVIENNRPPPGWPSSGSIKFEDVVLRYRPQLPPVLHGVSFFIHPTDKVGIVGRTGAGKSSLLNALFRIVEVEKGRILIDDCDVGKFGLMDLRKVLGIIPQSPVLFSGTVRFNLDPFGEHNDADLWESLERAHLKDTIRRNPLGLDAEVSEAGENFSVGQRQLLSLSRALLRRSKILVLDEATAAVDVRTDALIQKTIREEFKSCTMLIIAHRLNTIIDCDKILVLDSGRVQEFSSPENLLSNEGSSFSKMVQSTGAANAEYLRSLVLDNKRAKDDSHHLQGQRKWLASSRWAAAAQFALAASLTSSHNDLQSLEIEDDSSILKRTNDAVVTLRSVLEGKHDKEIAESLEEHNISREGWLSSLYRMVEGLAVMSRLARNRMQQPDYNFEGNTFDWDNVEM"}},
  "key": {"DTY165 cells": {"system": "DTY165 cells", "test": "Fluorescence microscopy of vacuolar bimane-GS accumulation, DTY165 cells", "assay_type": "cell-based, Saccharomyces cerevisiae", "conditions": "100 μM monochlorobimane, 6 hours", "description": "(§1) Cells were grown in YPD medium for 24 hours at 30° C. to an OD600 nm of approximately 1.4, and 100 μl aliquots of the suspensions were transferred to 15 ml volumes of fresh YPD medium containing 100 μM syn-(ClCH2,CH3)-1,5-diazabicyclo-[3.3.0]-[…] (monochlorobimane) (Kosower et al., 1980, J Am. Chem. Soc. 102:4983-4993). After incubation for 6 hours, the cells were pelleted by centrifugation, washed twice with YPD medium lacking monochlorobimane, and viewed without fixation under an Olympus BH-2 fluorescence microscope equipped with a BP-490 UV excitation filter, AFC-0515 barrier filter, and Nomarski optics attachment."}, "[1]": {"system": "vacuolar membrane vesicles purified from DTY167 cells (ycf1Δ mutant)", "assay_type": "biochemical, Saccharomyces cerevisiae", "conditions": "5 μM gramicidin D, GSH, GSSG 1 mM, GS-conjugates 100 μM", "method_in_brief": "(§2)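 ATP-dependent [3H]DNP-GS (66.2 μM) transport measured by filtration and scintillation counting of Ficoll-purified yeast vacuolar vesicles (DTY165 wild type; DTY167 ycf1Δ), 1–60 min at 25 °C in sorbitol/Tris-Mes pH 8.0 with 3 mM ATP, 3 mM MgSO4 and gramicidin-D. Nonenergized uptake without ATP/Mg2+.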"}, "DTY167 cells": {"system": "DTY167 cells", "test": "Fluorescence microscopy of vacuolar bimane-GS accumulation, DTY167 cells", "assay_type": "cell-based, Saccharomyces cerevisiae", "conditions": "100 μM monochlorobimane, 6 hours", "description": "as §1"}, "[2]": {"molecular_target": "T1, YCF1 (vacuolar membrane vesicles purified from DTY165 cells) (Saccharomyces cerevisiae, UniProt P39109)", "T1 construct": "endogenous in cells; host or cells: S. cerevisiae DTY165 (wild type YCF1), vacuolar membrane vesicles", "T1 sequence (P39109 whole entry)": "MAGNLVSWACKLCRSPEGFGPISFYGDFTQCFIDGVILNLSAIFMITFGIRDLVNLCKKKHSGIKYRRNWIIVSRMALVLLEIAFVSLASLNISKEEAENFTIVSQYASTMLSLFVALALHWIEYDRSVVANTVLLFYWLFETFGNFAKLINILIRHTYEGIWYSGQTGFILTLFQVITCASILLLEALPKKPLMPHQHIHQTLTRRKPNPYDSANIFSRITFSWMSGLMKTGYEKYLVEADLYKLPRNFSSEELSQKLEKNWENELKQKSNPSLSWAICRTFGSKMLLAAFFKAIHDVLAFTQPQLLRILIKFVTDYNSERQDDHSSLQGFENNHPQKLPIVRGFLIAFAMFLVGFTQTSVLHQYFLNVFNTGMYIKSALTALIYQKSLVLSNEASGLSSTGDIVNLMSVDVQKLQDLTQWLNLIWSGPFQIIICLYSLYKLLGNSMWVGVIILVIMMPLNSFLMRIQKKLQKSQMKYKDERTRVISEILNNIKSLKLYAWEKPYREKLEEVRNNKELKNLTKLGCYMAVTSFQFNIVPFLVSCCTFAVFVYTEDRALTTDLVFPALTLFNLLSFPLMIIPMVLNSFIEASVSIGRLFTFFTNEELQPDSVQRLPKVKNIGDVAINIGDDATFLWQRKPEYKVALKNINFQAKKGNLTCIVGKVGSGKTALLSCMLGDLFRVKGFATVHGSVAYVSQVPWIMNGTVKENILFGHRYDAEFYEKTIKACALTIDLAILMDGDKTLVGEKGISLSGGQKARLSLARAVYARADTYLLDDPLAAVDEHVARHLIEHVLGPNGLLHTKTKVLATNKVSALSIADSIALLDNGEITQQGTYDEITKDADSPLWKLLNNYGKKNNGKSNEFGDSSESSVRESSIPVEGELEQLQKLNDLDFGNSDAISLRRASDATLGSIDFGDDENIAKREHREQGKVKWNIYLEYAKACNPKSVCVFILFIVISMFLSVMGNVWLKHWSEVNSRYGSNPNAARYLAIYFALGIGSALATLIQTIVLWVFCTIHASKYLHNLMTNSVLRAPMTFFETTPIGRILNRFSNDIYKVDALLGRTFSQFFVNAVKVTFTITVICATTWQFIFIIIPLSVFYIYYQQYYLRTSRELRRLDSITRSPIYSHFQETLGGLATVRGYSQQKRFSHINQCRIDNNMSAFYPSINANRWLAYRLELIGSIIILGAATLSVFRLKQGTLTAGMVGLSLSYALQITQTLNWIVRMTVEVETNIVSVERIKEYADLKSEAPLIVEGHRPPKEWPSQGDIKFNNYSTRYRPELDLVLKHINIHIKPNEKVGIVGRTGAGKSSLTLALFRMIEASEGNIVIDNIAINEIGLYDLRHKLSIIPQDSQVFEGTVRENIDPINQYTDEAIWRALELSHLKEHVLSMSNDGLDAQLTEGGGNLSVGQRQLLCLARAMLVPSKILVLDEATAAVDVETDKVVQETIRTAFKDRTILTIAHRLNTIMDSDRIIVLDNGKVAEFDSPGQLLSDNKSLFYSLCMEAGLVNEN", "test": "[3H]DNP-GS uptake by vacuolar membrane vesicles purified from DTY165 cells", "assay_type": "biochemical", "method_in_brief": "as §2"}, "[3]": {"substrate": "N[C@@H](CCC(=O)N[C@@H](CSc1ccc([N+](=O)[O-])cc1[N+](=O)[O-])C(=O)NCC(=O)O)C(=O)O", "test": "AtMRP1-dependent uptake by membrane vesicles from pYES3-AtMRP1-transformed DTY168 cells", "assay_type": "biochemical, Arabidopsis thaliana", "conditions": "other: MgATP-dependent, uncoupler-insensitive; pH 8.0"}, "[4]": {"substrate": "N[C@@H](CCC(=O)N[C@@H](CSSC[C@H](NC(=O)CC[C@H](N)C(=O)O)C(=O)NCC(=O)O)C(=O)NCC(=O)O)C(=O)O", "test": "cells, lysate or membranes", "conditions": "other: MgATP-dependent, uncoupler-insensitive; pH 8.0"}},
  "note": "Values joined by “and” are separate entries in the source; they are usually repeats but may differ in a detail not shown here. Identical values can stand only once.",
  "data": [
    {"molecule": "Cc1c(C)n2c(CCl)c(C)c(=O)n2c1=O", "note": "[monochlorobimane, syn-(ClCH2,CH3)-1,5-diazabicyclo-[3.3.0]-octa-3,6-dione-2,8-dione]", "values": [
      {"measurement": "vacuolar fluorescence (bimane-GS)", "setting": "DTY165 cells", "value": "intense punctate fluorescence"}
    ]},
    {"molecule": "Cc1c(C)n2c(CSC[C@H](NC(=O)CC[C@H](N)C(=O)O)C(=O)NCC(=O)O)c(C)c(=O)n2c1=O", "note": "[Bimane-GS]", "values": [
      {"measurement": "MgATP-dependent, uncoupler-insensitive DNP-GS uptake plus compound", "setting": "[1]", "value": "4.5 ± 0.4", "unit": "nmol/mg/10 minutes"},
      {"measurement": "MgATP-dependent, uncoupler-insensitive DNP-GS uptake as percentage of control", "setting": "[1]; 10 min", "value": 69.2, "unit": "%"},
      {"measurement": "vacuolar fluorescence (bimane-GS)", "setting": "DTY167 cells", "value": "severely attenuated"},
      {"measurement": "MgATP-dependent, uncoupler-insensitive DNP-GS uptake plus compound", "setting": "[2]; 5 μM gramicidin D, GSH, GSSG 1 mM, GS-conjugates 100 μM", "value": "25.2 ± 1.1", "unit": "nmol/mg/10 minutes"},
      {"measurement": "MgATP-dependent, uncoupler-insensitive DNP-GS uptake as percentage of control", "setting": "[2]; 5 μM gramicidin D, GSH, GSSG 1 mM, GS-conjugates 100 μM, 10 min", "value": 52.6, "unit": "%"},
      {"measurement": "inhibition at 100 µM", "setting": "[2]; 100 μM compound", "value": "~50", "unit": "%"}
    ]},
    {"molecule": "B1", "values": [
      {"measurement": "Km", "setting": "[3]", "value": "48.7 ± 15.4 µM and 73.8 µM and 49.7 ± 15.4 µM"},
      {"measurement": "Km", "setting": "[4]", "value": 219, "unit": "µM"}
    ]},
    {"molecule": "B2", "values": [
      {"measurement": "Km", "setting": "[4]", "value": "73.0 ± 15.1", "unit": "µM"}
    ]}
  ]
}
